US20250382332A1, “NOVEL ALPHA-FACTOR BASED PEPTIDES WITH ANTIFUNGAL ACTIVITY” (INVAIO SCIENCES, INC., priority 2024, published 2025)
Peptide text beside a SMILES is read from it.

System: Botrytis cinerea (B05.10)
Assay: Resazurin antifungal assay of 23 alpha-factor peptides (dimers, hybrids) towards Botrytis (Example 15, Table 6)
Format: cell-based
Conditions: resazurin assay, % inhibition of fungal growth, Botrytis cinerea B05.10; for Inhibition at 10 μM: peptide 10 μM; for Inhibition at 20 μM: peptide 20 μM; for Inhibition at 50 μM: peptide 50 μM
Method: The antifungal activity of […] alpha-factor peptide variants towards Botrytis was tested. Experimental design:
Peptides corresponding to SEQ ID NO: 261-264 and 401-420 were chemically synthesized using the solid-phase synthesis method and resuspended in water to a stock solution of 1 mM. The stock solution was aliquoted in cryovials and stored at −80° C.
The Botrytis cinerea culture (B05.10) isolate was acquired from the Centraalbureau voor Schimmelcultures, the Netherlands. The Botrytis fungus was propagated on 0.5% V8 agar plates (200 ml V8 Juice, 3 g CaCO3, 15 g agar, 800-ml millipore water) at 20° C., in a 12 h photoperiod for 21 days.
Fungal conidia were harvested by scraping a Botrytis plate flooded with 1 ml water with 0.1% Tween 80 solution. Conidia were then collected in a 50 ml falcon tube by passing the solution through a 40 micron filter. The solution was then centrifuged at 6000 rpm and the pellet was resuspended in 1 ml of 20% glycerol. The conidia concentration of the resulting solution was counted using a hemocytometer. The stock was diluted to […] using 20% glycerol and frozen in 100 μl aliquots in −80° C. until further use.
Peptides were tested for activity against Botrytis, using the resazurin assay. For this, fungal stock conidia was first diluted to 5000 conidia/well. 50 μl of the spore suspension was added to each well of the sterile 96-well clear bottom testing plate and mixed with 50 μl of peptide solutions to a final concentration of 100, 50, 20, 10, 5 and 2.5 μM. The plate was incubated for 24 h at 20° C. After 24 h, 10 μl of resazurin dye was added to the microtiter plate and incubated again for […]. Fluorescence was measured at 570/620 nm after 4 h of incubation with resazurin.
Growth inhibition was calculated by subtracting the fluorescence values of conidia only wells from sample wells and depicted as % inhibition of fungal growth. Four technical replicates were used for all treatments.

## CSCC[C@H](NC(=O)[C@@H]1CCCN1C(=O)[C@H](CCC(N)=O)NC(=O)CNC(=O)[C@@H]1CCCN1C(=O)[C@H](Cc1c[nH]c2ccccc12)NC(=O)[C@H](CC(C)C)NC(=O)[C@H](CCCNC(=N)N)NC(=O)[C@H](CC(C)C)NC(=O)[C@H](CO)NC(=O)[C@H](Cc1c[nH]cn1)NC(=O)[C@@H](N)CCCCN)C(=O)N[C@@H](Cc1ccc(O)cc1)C(=O)O [compound 404] (H-KHSLRLWPGQPMY-OH; N-terminus and C-terminus assumed)
  Inhibition at 10 μM: <90%
  Inhibition at 20 μM: <90%
  Inhibition at 50 μM: 100%

## CSCC[C@H](NC(=O)[C@@H]1CCCN1C(=O)[C@H](CCC(N)=O)NC(=O)CNC(=O)[C@@H]1CCCN1C(=O)[C@H](Cc1ccccc1)NC(=O)[C@H](CC(C)C)NC(=O)[C@@H](NC(=O)[C@H](CC(C)C)NC(=O)[C@H](Cc1c[nH]c2ccccc12)NC(=O)[C@H](Cc1c[nH]cn1)NC(=O)[C@@H](N)CCCCN)[C@@H](C)O)C(=O)N[C@@H](Cc1ccc(O)cc1)C(=O)O [compound 405] (H-KHWLTLFPGQPMY-OH; N-terminus and C-terminus assumed)
  Inhibition at 50 μM: <90%

## CSCC[C@H](NC(=O)[C@@H]1CCCN1C(=O)[C@H](CCC(N)=O)NC(=O)CNC(=O)[C@H](CCCNC(=N)N)NC(=O)[C@H](CC(=O)O)NC(=O)[C@H](CC(C)C)NC(=O)[C@H](CCC(N)=O)NC(=O)[C@H](CC(C)C)NC(=O)[C@H](Cc1c[nH]c2ccccc12)NC(=O)[C@H](CCC(N)=O)NC(=O)[C@@H](N)Cc1c[nH]c2ccccc12)C(=O)N[C@@H](Cc1ccc(O)cc1)C(=O)O [compound 406] (H-WQWLQLDRGQPMY-OH; N-terminus and C-terminus assumed)
  Inhibition at 50 μM: <90%

## CC[C@H](C)[C@H](NC(=O)[C@H](CCC(N)=O)NC(=O)[C@H](CC(C)C)NC(=O)[C@H](CO)NC(=O)[C@H](Cc1c[nH]cn1)NC(=O)[C@@H](N)Cc1c[nH]c2ccccc12)C(=O)N[C@@H](CCCCN)C(=O)N[C@@H](CCCCN)C(=O)NCC(=O)N[C@@H](CCC(N)=O)C(=O)N1CCC[C@H]1C(=O)N[C@@H](CCSC)C(=O)N[C@@H](Cc1ccc(O)cc1)C(=O)O [compound 407] (H-WHSLQIKKGQPMY-OH; N-terminus and C-terminus assumed)
  Inhibition at 10 μM: <90%
  Inhibition at 20 μM: <90%
  Inhibition at 50 μM: 100%

## CSCC[C@H](NC(=O)[C@@H]1CCCN1C(=O)[C@H](CCC(N)=O)NC(=O)CNC(=O)[C@H](Cc1c[nH]c2ccccc12)NC(=O)[C@H](CC(N)=O)NC(=O)[C@H](Cc1ccccc1)NC(=O)[C@H](CCC(N)=O)NC(=O)[C@H](CC(C)C)NC(=O)[C@H](CC(C)C)NC(=O)[C@H](Cc1c[nH]cn1)NC(=O)[C@@H](N)Cc1c[nH]c2ccccc12)C(=O)N[C@@H](Cc1ccc(O)cc1)C(=O)O [compound 408] (H-WHLLQFNWGQPMY-OH; N-terminus and C-terminus assumed)
  Inhibition at 10 μM: <90%
  Inhibition at 20 μM: <90%
  Inhibition at 50 μM: 100%

## CSCC[C@H](NC(=O)[C@H](CO)NC(=O)[C@H](CCC(N)=O)NC(=O)CNC(=O)[C@H](CCCNC(=N)N)NC(=O)[C@H](CCCCN)NC(=O)[C@H](CC(C)C)NC(=O)[C@@H](NC(=O)[C@H](CC(C)C)NC(=O)[C@@H](NC(=O)[C@@H](NC(=O)[C@@H](N)Cc1c[nH]c2ccccc12)[C@@H](C)O)C(C)C)[C@@H](C)O)C(=O)N[C@@H](Cc1ccc(O)cc1)C(=O)O [compound 409] (H-WTVLTLKRGQSMY-OH; N-terminus and C-terminus assumed)
Peptide 2.5 μM
  Inhibition at 2.5 μM: <90%
Peptide 5 μM
  Inhibition at 5 μM: <90%
  Inhibition at 10 μM: 97.7%
  Inhibition at 20 μM: 100%
  Inhibition at 50 μM: 100%

## CSCC[C@H](NC(=O)[C@@H]1CCCN1C(=O)[C@H](CCC(N)=O)NC(=O)CNC(=O)[C@@H]1CCCN1C(=O)[C@H](CCCNC(=N)N)NC(=O)[C@H](Cc1ccccc1)NC(=O)[C@H](CCCNC(=N)N)NC(=O)[C@H](CC(C)C)NC(=O)[C@H](Cc1c[nH]c2ccccc12)NC(=O)[C@H](Cc1c[nH]cn1)NC(=O)[C@@H](N)CCCCN)C(=O)N[C@@H](Cc1ccc(O)cc1)C(=O)O [compound 410] (H-KHWLRFRPGQPMY-OH; N-terminus and C-terminus assumed)
  Inhibition at 10 μM: <90%
  Inhibition at 20 μM: 100%
  Inhibition at 50 μM: 100%

## CSCC[C@H](NC(=O)[C@@H]1CCCN1C(=O)[C@H](CCC(N)=O)NC(=O)CNC(=O)[C@@H]1CCCN1C(=O)[C@H](Cc1c[nH]c2ccccc12)NC(=O)[C@H](Cc1ccccc1)NC(=O)[C@H](CCCNC(=N)N)NC(=O)[C@H](CC(C)C)NC(=O)[C@H](Cc1c[nH]c2ccccc12)NC(=O)[C@H](Cc1c[nH]cn1)NC(=O)[C@@H](N)CCCCN)C(=O)N[C@@H](Cc1ccc(O)cc1)C(=O)O [compound 411] (H-KHWLRFWPGQPMY-OH; N-terminus and C-terminus assumed)
  Inhibition at 10 μM: <90%
  Inhibition at 20 μM: <90%
  Inhibition at 50 μM: 100%

## CC[C@H](C)[C@H](NC(=O)[C@H](CCCNC(=N)N)NC(=O)[C@H](CC(C)C)NC(=O)[C@H](Cc1c[nH]c2ccccc12)NC(=O)[C@H](Cc1c[nH]cn1)NC(=O)[C@@H](N)CCCCN)C(=O)N[C@@H](Cc1c[nH]c2ccccc12)C(=O)N1CCC[C@H]1C(=O)NCC(=O)N[C@@H](CCC(N)=O)C(=O)N1CCC[C@H]1C(=O)N[C@@H](CCSC)C(=O)N[C@@H](Cc1ccc(O)cc1)C(=O)O [compound 412] (H-KHWLRIWPGQPMY-OH; N-terminus and C-terminus assumed)
  Inhibition at 10 μM: <90%
  Inhibition at 20 μM: <90%
  Inhibition at 50 μM: 100%

## CSCC[C@H](NC(=O)[C@H](Cc1ccc(O)cc1)NC(=O)[C@H](CCCNC(=N)N)NC(=O)[C@H](CCCNC(=N)N)NC(=O)[C@H](CCCNC(=N)N)NC(=O)[C@H](CCCNC(=N)N)NC(=O)[C@H](CCCNC(=N)N)NC(=O)[C@H](CCCNC(=N)N)NC(=O)[C@H](CCCNC(=N)N)NC(=O)[C@@H](N)CCCNC(=N)N)C(=O)N1CCC[C@H]1C(=O)N[C@@H](CCC(N)=O)C(=O)NCC(=O)N1CCC[C@H]1C(=O)N[C@@H](CCCCN)C(=O)N[C@@H](CC(C)C)C(=O)N[C@@H](CCC(N)=O)C(=O)N[C@@H](CC(C)C)C(=O)N[C@@H](Cc1c[nH]c2ccccc12)C(=O)N[C@@H](Cc1c[nH]cn1)C(=O)N[C@@H](Cc1c[nH]c2ccccc12)C(=O)O [compound 420] (H-RRRRRRRRYMPQGPKLQLWHW-OH; N-terminus and C-terminus assumed)
  Inhibition at 50 μM: 100%
Peptide 100 μM
  Inhibition at 100 μM: 100%
